SMILES strings stand for the structures.

The first data set concerns L6. Description: Cytotoxicity against rat L6 cells at 10 uM after 72 hrs by Alamar blue assay. It is filed as cell-based. To be noted: l6, 72 h. Background: Alamar Blue is a resazurin reagent that responds to reducing activity.
On to `O=C(Cc1ccccc1)NCCCNCCCCNCCCNC(=O)Cc1ccccc1`, for which the Activity entry is “Non-toxic”.

As for `O=C(Cc1cccc(O)c1)NCCCNCCCCNCCCNC(=O)Cc1cccc(O)c1`, the Activity result was “Non-toxic”.

For the molecule `O=C(Cc1ccc(O)cc1)NCCCNCCCCNCCCNC(=O)Cc1ccc(O)cc1`, the Activity entry is “Non-toxic”.

As to `O=C(Cc1ccc(O)c(O)c1)NCCCNCCCCNCCCNC(=O)Cc1ccc(O)c(O)c1`, the Activity entry is “Non-toxic”.

On to `COc1ccc(OC)c(CC(=O)NCCCNCCCCNCCCNC(=O)Cc2cc(OC)ccc2OC)c1`, for which the Activity entry is listed as “Non-toxic”.

Take `O=C(Cc1ccccc1O)NCCCNCCNCCCNC(=O)Cc1ccccc1O`: the Activity entry is listed as “Non-toxic”.

As to `O=C(Cc1ccc(O)c(O)c1)NCCCCNCCCNC(=O)Cc1ccc(O)c(O)c1`, the Activity entry is listed as “Non-toxic”.

For `O=C(Cc1ccc(O)c(O)c1)NCCCNCCNC(=O)Cc1ccc(O)c(O)c1`, the Activity result is given as “Non-toxic”.

For `COc1cc(CC(=O)NCCCNCCCCNCCCNC(=O)Cc2ccc(O)c(OC)c2)ccc1O`, the Activity entry is reported as “Non-toxic”.

`O=C(Cc1ccccc1O)NCCCNCCCCNCCCNC(=O)Cc1ccccc1O`: the Activity entry is reported as “Non-toxic”.

The test system of another data set is Plasmodium falciparum. Description: Antiprotozoal activity against erythrocytic stages of Plasmodium falciparum K1 by [3H]hypoxanthine incorporation assay.
Conditions: not given
The class given is functional, organism-based.
What is called IC50 is the point on the concentration scale where inhibition reaches its midpoint. As to `O=C(Cc1ccccc1)NCCCNCCCCNCCCNC(=O)Cc1ccccc1`, the IC50 was 0.14 µM.

For `COc1cc(CC(=O)NCCCNCCNCCCNC(=O)Cc2ccc(O)c(OC)c2)ccc1O`, the IC50 was greater than 6.8 µM.

For `COc1cc(CC(=O)NCCCCNC(=O)Cc2ccc(O)c(OC)c2)ccc1O`, the IC50 was greater than 12 µM.

Regarding `O=C(Cc1ccccc1)NCCCCNC(=O)Cc1ccccc1`, the IC50 was greater than 15 µM.

As to `O=C(Cc1cccc(O)c1)NCCCNCCCCNCCCNC(=O)Cc1cccc(O)c1`, the IC50 is 0.17 µM.

`O=C(Cc1ccc(O)cc1)NCCCNCCCCNCCCNC(=O)Cc1ccc(O)cc1`: the IC50 came to 0.14 µM.

The molecule `O=C(Cc1ccc(O)c(O)c1)NCCCNCCCCNCCCNC(=O)Cc1ccc(O)c(O)c1` had an IC50 of 4.8 µM.

The molecule `COc1ccc(OC)c(CC(=O)NCCCNCCCCNCCCNC(=O)Cc2cc(OC)ccc2OC)c1` gave an IC50 of 0.019 µM.

`O=C(Cc1ccccc1O)NCCCNCCNCCCNC(=O)Cc1ccccc1O` registered an IC50 of 0.61 µM.

With `O=C(Cc1ccc(O)c(O)c1)NCCCCNCCCNC(=O)Cc1ccc(O)c(O)c1`, half-maximal inhibition (IC50) required 7.9 µM.

The molecule `O=C(Cc1ccc(O)c(O)c1)NCCCNCCNC(=O)Cc1ccc(O)c(O)c1` returned an IC50 greater than 9.4 µM.

`COc1cc(CC(=O)NCCCNCCCCNCCCNC(=O)Cc2ccc(O)c(OC)c2)ccc1O` had an IC50 of 0.89 µM.

`O=C(Cc1ccccc1O)NCCCNCCCCNCCCNC(=O)Cc1ccccc1O` registered an IC50 of 0.0086 µM.

A further data set has as its system L6. Description: Cytotoxicity against rat L6 cells after 72 hrs by Alamar blue assay. The settings on record: L6, 72 h. The class given is cell-based.
In turn, `O=C(Cc1ccccc1)NCCCNCCCCNCCCNC(=O)Cc1ccccc1` registered an IC50 greater than 140 µM.

With `COc1cc(CC(=O)NCCCNCCNCCCNC(=O)Cc2ccc(O)c(OC)c2)ccc1O`, the IC50 was greater than 120 µM.

`COc1cc(CC(=O)NCCCCNC(=O)Cc2ccc(O)c(OC)c2)ccc1O` registered an IC50 greater than 220 µM.

Molecule `O=C(Cc1ccccc1)NCCCCNC(=O)Cc1ccccc1` yielded an IC50 greater than 280 µM.

`O=C(Cc1cccc(O)c1)NCCCNCCCCNCCCNC(=O)Cc1cccc(O)c1` had an IC50 greater than 130 µM.

As to `O=C(Cc1ccc(O)cc1)NCCCNCCCCNCCCNC(=O)Cc1ccc(O)cc1`, the IC50 turned out to be 130 µM.

As for `O=C(Cc1ccc(O)c(O)c1)NCCCNCCCCNCCCNC(=O)Cc1ccc(O)c(O)c1`, the IC50 worked out at 85 µM.

`COc1ccc(OC)c(CC(=O)NCCCNCCCCNCCCNC(=O)Cc2cc(OC)ccc2OC)c1`: the IC50 was 88 µM.

On to `O=C(Cc1ccccc1O)NCCCNCCNCCCNC(=O)Cc1ccccc1O`, for which the IC50 was greater than 130 µM.

The molecule `O=C(Cc1ccc(O)c(O)c1)NCCCCNCCCNC(=O)Cc1ccc(O)c(O)c1` showed an IC50 of 97 µM.

The molecule `O=C(Cc1ccc(O)c(O)c1)NCCCNCCNC(=O)Cc1ccc(O)c(O)c1` yielded an IC50 of 140 µM.

As to `COc1cc(CC(=O)NCCCNCCCCNCCCNC(=O)Cc2ccc(O)c(OC)c2)ccc1O`, the IC50 was greater than 120 µM.

The molecule `O=C(Cc1ccccc1O)NCCCNCCCCNCCCNC(=O)Cc1ccccc1O` showed an IC50 greater than 130 µM.

The next data set has as its system Leishmania donovani. Description: Antiprotozoal activity against amastigote/ axenic stage of Leishmania donovani MHOM-ET-67/L82 after 72 hrs by Alamar blue assay. The class given is functional, organism-based. The settings on record: MHOM-ET-67/L82, 72 h.
For the molecule `O=C(Cc1ccccc1)NCCCNCCCCNCCCNC(=O)Cc1ccccc1`, the IC50 turned out to be 90 µM.

Turning to `COc1cc(CC(=O)NCCCNCCNCCCNC(=O)Cc2ccc(O)c(OC)c2)ccc1O`, the IC50 is greater than 120 µM.

For the molecule `COc1cc(CC(=O)NCCCCNC(=O)Cc2ccc(O)c(OC)c2)ccc1O`, the IC50 is greater than 220 µM.

For the molecule `O=C(Cc1ccccc1)NCCCCNC(=O)Cc1ccccc1`, the IC50 was greater than 280 µM.

With `O=C(Cc1cccc(O)c1)NCCCNCCCCNCCCNC(=O)Cc1cccc(O)c1`, the IC50 was greater than 130 µM.

`O=C(Cc1ccc(O)cc1)NCCCNCCCCNCCCNC(=O)Cc1ccc(O)cc1`: the IC50 is greater than 130 µM.

The molecule `O=C(Cc1ccc(O)c(O)c1)NCCCNCCCCNCCCNC(=O)Cc1ccc(O)c(O)c1` came in with an IC50 greater than 120 µM.

`COc1ccc(OC)c(CC(=O)NCCCNCCCCNCCCNC(=O)Cc2cc(OC)ccc2OC)c1` returned an IC50 of 35 µM.

Molecule `O=C(Cc1ccccc1O)NCCCNCCNCCCNC(=O)Cc1ccccc1O` had an IC50 greater than 130 µM.

In the case of `O=C(Cc1ccc(O)c(O)c1)NCCCCNCCCNC(=O)Cc1ccc(O)c(O)c1`, the IC50 was greater than 160 µM.

Take `O=C(Cc1ccc(O)c(O)c1)NCCCNCCNC(=O)Cc1ccc(O)c(O)c1`: the IC50 is greater than 170 µM.

For `COc1cc(CC(=O)NCCCNCCCCNCCCNC(=O)Cc2ccc(O)c(OC)c2)ccc1O`, the IC50 was greater than 120 µM.

In the case of `O=C(Cc1ccccc1O)NCCCNCCCCNCCCNC(=O)Cc1ccccc1O`, half-maximal inhibition (IC50) required 110 µM.

For the next data set, the system named is Trypanosoma cruzi. Description: Antiprotozoal activity against Trypanosoma cruzi Tulahuen C4 amastigotes after 96 hrs. It is filed as functional, organism-based. The settings on record: Tulahuen C4, 96 h.
Molecule `O=C(Cc1ccccc1)NCCCNCCCCNCCCNC(=O)Cc1ccccc1` came in with a 50% inhibitory concentration (IC50) greater than 140 µM.

`COc1cc(CC(=O)NCCCNCCNCCCNC(=O)Cc2ccc(O)c(OC)c2)ccc1O` gave an IC50 greater than 120 µM.

For the molecule `COc1cc(CC(=O)NCCCCNC(=O)Cc2ccc(O)c(OC)c2)ccc1O`, the IC50 is greater than 220 µM.

For the molecule `O=C(Cc1ccccc1)NCCCCNC(=O)Cc1ccccc1`, the IC50 is greater than 280 µM.

`O=C(Cc1cccc(O)c1)NCCCNCCCCNCCCNC(=O)Cc1cccc(O)c1` had an IC50 greater than 130 µM.

Regarding `O=C(Cc1ccc(O)cc1)NCCCNCCCCNCCCNC(=O)Cc1ccc(O)cc1`, the IC50 is greater than 130 µM.

On to `O=C(Cc1ccc(O)c(O)c1)NCCCNCCCCNCCCNC(=O)Cc1ccc(O)c(O)c1`, for which the IC50 was greater than 120 µM.

`COc1ccc(OC)c(CC(=O)NCCCNCCCCNCCCNC(=O)Cc2cc(OC)ccc2OC)c1` came in with an IC50 of 31 µM.

`O=C(Cc1ccccc1O)NCCCNCCNCCCNC(=O)Cc1ccccc1O` showed an IC50 greater than 130 µM.

`O=C(Cc1ccc(O)c(O)c1)NCCCCNCCCNC(=O)Cc1ccc(O)c(O)c1` displayed a half-maximal inhibitory concentration (IC50) greater than 160 µM.

As to `O=C(Cc1ccc(O)c(O)c1)NCCCNCCNC(=O)Cc1ccc(O)c(O)c1`, the IC50 was greater than 170 µM.

Molecule `COc1cc(CC(=O)NCCCNCCCCNCCCNC(=O)Cc2ccc(O)c(OC)c2)ccc1O` came in with an IC50 greater than 120 µM.

`O=C(Cc1ccccc1O)NCCCNCCCCNCCCNC(=O)Cc1ccccc1O`: the IC50 is greater than 130 µM.

Another data set concerns Trypanosoma brucei rhodesiense. Description: Antiprotozoal activity against Trypanosoma brucei rhodesiense STIB 900 after 72 hrs by Alamar blue assay. The class given is functional, organism-based. To be noted: STIB 900, 72 h.
`O=C(Cc1ccccc1)NCCCNCCCCNCCCNC(=O)Cc1ccccc1` came in with an IC50 of 96 µM.

For the molecule `COc1cc(CC(=O)NCCCNCCNCCCNC(=O)Cc2ccc(O)c(OC)c2)ccc1O`, half-maximal inhibition (IC50) required 120 µM.

Regarding `COc1cc(CC(=O)NCCCCNC(=O)Cc2ccc(O)c(OC)c2)ccc1O`, 210 µM corresponded to half-maximal inhibition (IC50).

As for `O=C(Cc1ccccc1)NCCCCNC(=O)Cc1ccccc1`, half-maximal inhibition (IC50) was put at 110 µM.

Consider `O=C(Cc1cccc(O)c1)NCCCNCCCCNCCCNC(=O)Cc1cccc(O)c1`, for which the IC50 is 87 µM.

Take `O=C(Cc1ccc(O)cc1)NCCCNCCCCNCCCNC(=O)Cc1ccc(O)cc1`: the IC50 worked out at 86 µM.

In the case of `O=C(Cc1ccc(O)c(O)c1)NCCCNCCCCNCCCNC(=O)Cc1ccc(O)c(O)c1`, inhibition was half-maximal at 3.2 µM (IC50).

In turn, `COc1ccc(OC)c(CC(=O)NCCCNCCCCNCCCNC(=O)Cc2cc(OC)ccc2OC)c1` displayed an IC50 of 38 µM.

For `O=C(Cc1ccccc1O)NCCCNCCNCCCNC(=O)Cc1ccccc1O`, inhibition was half-maximal at 49 µM (IC50).

The molecule `O=C(Cc1ccc(O)c(O)c1)NCCCCNCCCNC(=O)Cc1ccc(O)c(O)c1` displayed an IC50 of 5.9 µM.

The molecule `O=C(Cc1ccc(O)c(O)c1)NCCCNCCNC(=O)Cc1ccc(O)c(O)c1` returned an IC50 of 7.5 µM.

As for `COc1cc(CC(=O)NCCCNCCCCNCCCNC(=O)Cc2ccc(O)c(OC)c2)ccc1O`, inhibition was half-maximal at 78 µM (IC50).

`O=C(Cc1ccccc1O)NCCCNCCCCNCCCNC(=O)Cc1ccccc1O` returned an IC50 of 51 µM.

These data come from ChEMBL document CHEMBL2311501, “Discovery and preliminary structure-activity relationship analysis of 1,14-sperminediphenylacetamides as potent and selective antimalarial lead compounds” (Bioorg Med Chem Lett, 2013).
